PubChem BioAssay AID1963864 (Molecular Pharmacology Branch, DTP, NCI, 2024)

System: KRAS PDC multicell spheroid viability
Assay: Anticancer human tumor 521955-158-R6-J3-PDC patient-derived pancreatic carcinoma cell line growth inhibition [KRAS2]
Details: for IC50: curve of first compound; for viability, T/C: stronger effect = lower value
Procedure, shortened: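 Combination screen of spheroid viability in tumor-cell co-cultures with endothelial (HUVEC) and mesenchymal stem cell stroma. Each agent was tested in half-log dilutions, topping at clinical Cmax or at 10 microM without a known Cmax.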

[1] = second compound 0.1 µM, first compound 0.0316 µM
[2] = second compound 0.1 µM, first compound 0.1 µM
[3] = second compound 0.316 µM, first compound 0.0316 µM
[4] = second compound 0.316 µM, first compound 0.1 µM
[5] = second compound 1 µM, first compound 0.0316 µM
[6] = second compound 1 µM, first compound 0.1 µM
[7] = second compound 3.16 µM, first compound 0.0316 µM
[8] = second compound 3.16 µM, first compound 0.1 µM
[9] = second compound 10 µM, first compound 0.0316 µM
[10] = second compound 10 µM, first compound 0.1 µM
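Note: drug exposure lasted seven days.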
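Throughout, for viability, T/C: 100% = DMSO vehicle wells and lower means fewer viable cells.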

O=C(c1cc(Cc2n[nH]c(=O)c3ccccc23)ccc1F)N1CCN(C(=O)C2CC2)CC1 + COc1cc2nc(C)nc(NC(C)c3cc(N)cc(C(F)(F)F)c3)c2cc1OC1CCOC1
IC50 (second compound 0.1 µM): > 10000 nM
IC50 (second compound 0.316 µM): > 10000 nM
IC50 (second compound 1 µM): > 10000 nM
IC50 (second compound 3.16 µM): > 10000 nM
IC50 (second compound 10 µM): > 10000 nM
viability, T/C [1]: 82.4%
viability, T/C [2]: 76.4%
viability, T/C (second compound 0.1 µM, first compound 0.316 µM): 86.1%
viability, T/C (second compound 0.1 µM, first compound 1 µM): 75.5%
viability, T/C (second compound 0.1 µM, first compound 3.16 µM): 69.2%
viability, T/C (second compound 0.1 µM, first compound 10 µM): 80.2%
viability, T/C [3]: 88.9%
viability, T/C [4]: 88.8%
viability, T/C (second compound 0.316 µM, first compound 0.316 µM): 80.5%
viability, T/C (second compound 0.316 µM, first compound 1 µM): 70.5%
viability, T/C (second compound 0.316 µM, first compound 3.16 µM): 67.1%
viability, T/C (second compound 0.316 µM, first compound 10 µM): 77.7%
viability, T/C [5]: 90.9%
viability, T/C [6]: 88.3%
viability, T/C (second compound 1 µM, first compound 0.316 µM): 97.1%
viability, T/C (second compound 1 µM, first compound 1 µM): 70.8%
viability, T/C (second compound 1 µM, first compound 3.16 µM): 70.3%
viability, T/C (second compound 1 µM, first compound 10 µM): 83.5%
viability, T/C [7]: 70.1%
viability, T/C [8]: 75.6%
viability, T/C (second compound 3.16 µM, first compound 0.316 µM): 67.2%
viability, T/C (second compound 3.16 µM, first compound 1 µM): 60.8%
viability, T/C (second compound 3.16 µM, first compound 3.16 µM): 63.6%
viability, T/C (second compound 3.16 µM, first compound 10 µM): 75.9%
viability, T/C [9]: 55.4%
viability, T/C [10]: 59.5%
viability, T/C (second compound 10 µM, first compound 0.316 µM): 55.9%
viability, T/C (second compound 10 µM, first compound 1 µM): 53.3%
viability, T/C (second compound 10 µM, first compound 3.16 µM): 65.3%
viability, T/C (second compound 10 µM, first compound 10 µM): 77.4%

CN(C)C/C=C/C(=O)Nc1cc2c(Nc3ccc(F)c(Cl)c3)ncnc2cc1O[C@H]1CCOC1 + CC1OCC2(CCN(c3cnc(Sc4ccnc(N)c4Cl)c(N)n3)CC2)C1N
IC50 (second compound 0.1 µM): > 100 nM
IC50 (second compound 0.316 µM): 51.1 nM
IC50 (second compound 1 µM): 86.2 nM
IC50 (second compound 3.16 µM): 24.4 nM
IC50 (second compound 10 µM): > 100 nM
viability, T/C (second compound 0.1 µM, first compound 0.000316 µM): 99.4%
viability, T/C (second compound 0.1 µM, first compound 0.001 µM): 84.2%
viability, T/C (second compound 0.1 µM, first compound 0.00316 µM): 76.7%
viability, T/C (second compound 0.1 µM, first compound 0.01 µM): 55.3%
viability, T/C [1]: 62.1%
viability, T/C [2]: 54.8%
viability, T/C (second compound 0.316 µM, first compound 0.000316 µM): 99%
viability, T/C (second compound 0.316 µM, first compound 0.001 µM): 84.7%
viability, T/C (second compound 0.316 µM, first compound 0.00316 µM): 69.8%
viability, T/C (second compound 0.316 µM, first compound 0.01 µM): 52.9%
viability, T/C [3]: 53%
viability, T/C [4]: 48.3%
viability, T/C (second compound 1 µM, first compound 0.000316 µM): 105%
viability, T/C (second compound 1 µM, first compound 0.001 µM): 86.4%
viability, T/C (second compound 1 µM, first compound 0.00316 µM): 87.4%
viability, T/C (second compound 1 µM, first compound 0.01 µM): 64.9%
viability, T/C [5]: 69.8%
viability, T/C [6]: 44.7%
viability, T/C (second compound 3.16 µM, first compound 0.000316 µM): 124%
viability, T/C (second compound 3.16 µM, first compound 0.001 µM): 117%
viability, T/C (second compound 3.16 µM, first compound 0.00316 µM): 89.7%
viability, T/C (second compound 3.16 µM, first compound 0.01 µM): 124%
viability, T/C [7]: 28.3%
viability, T/C [8]: 34.8%
viability, T/C (second compound 10 µM, first compound 0.000316 µM): 110%
viability, T/C (second compound 10 µM, first compound 0.001 µM): 101%
viability, T/C (second compound 10 µM, first compound 0.00316 µM): 71.8%
viability, T/C (second compound 10 µM, first compound 0.01 µM): 60.9%
viability, T/C [9]: 50.1%
viability, T/C [10]: 49.2%
